According to PubChem BioAssay (NCI):
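All cell lines were grown in 96-well plates and treated with compound for 48 hours. The concentration for full growth arrest is given as TGI.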

What was measured:
Assay in all cases: inhibition of tumour cell growth, NCI panel, 48 h
OVCAR-3 ovarian = tested on: OVCAR-3 ovarian
MOLT-4 leukemia = tested on: MOLT-4 leukemia
SN12C renal = tested on: SN12C renal
M14 melanoma = tested on: M14 melanoma
HL-60(TB) leukemia = tested on: HL-60(TB) leukemia
K-562 leukemia = tested on: K-562 leukemia
SK-MEL-2 melanoma = tested on: SK-MEL-2 melanoma
CCRF-CEM leukemia = tested on: CCRF-CEM leukemia
LOX IMVI melanoma = tested on: LOX IMVI melanoma
PC-3 prostate = tested on: PC-3 prostate
CAKI-1 renal = tested on: CAKI-1 renal
HCT-15 colon = tested on: HCT-15 colon
786-0 renal = tested on: 786-0 renal
TK-10 renal = tested on: TK-10 renal
HS 578T breast = tested on: HS 578T breast
HT29 colon = tested on: HT29 colon
UO-31 renal = tested on: UO-31 renal
IGROV1 ovarian = tested on: IGROV1 ovarian
SF-268 CNS = tested on: SF-268 CNS
NCI-H522 lung = tested on: NCI-H522 lung

SMILES | TGI (OVCAR-3 ovarian) [µM] | TGI (MOLT-4 leukemia) [µM] | TGI (SN12C renal) [µM] | TGI (M14 melanoma) [µM] | TGI (HL-60(TB) leukemia) [µM] | TGI (K-562 leukemia) [µM] | TGI (SK-MEL-2 melanoma) [µM] | TGI (CCRF-CEM leukemia) [µM] | TGI (LOX IMVI melanoma) [µM] | TGI (PC-3 prostate) [µM] | TGI (CAKI-1 renal) [µM] | TGI (HCT-15 colon) [µM] | TGI (786-0 renal) [µM] | TGI (TK-10 renal) [µM] | TGI (HS 578T breast) [µM] | TGI (HT29 colon) [µM] | TGI (UO-31 renal) [µM] | TGI (IGROV1 ovarian) [µM] | TGI (SF-268 CNS) [µM] | TGI (NCI-H522 lung) [µM]
Cc1ccc(/C=N/Nc2cc(C)c3ccccc3n2)s1 | 7.93 | 45.1 | 41.1 | 42.8 | > 100 | 39.2 | > 100 | > 100 | 78.9 | 31.1 | 37 | 25.6 | > 100 | > 100 | > 100 | 18.7 | > 100 | 24.9 | > 100 | –
CCCC(=O)OCC1(CO)C/C(=C/CC(C(C)C)C(C)C)C(=O)O1 (stereo not drawn) | > 100 | – | > 100 | – | – | – | > 100 | > 100 | 35.8 | > 100 | > 100 | > 100 | > 100 | > 100 | > 100 | > 100 | > 100 | > 100 | > 100 | > 100
OC1CSCCCSCCSCCCSC1 | > 100 | > 100 | > 100 | > 100 | – | > 100 | > 100 | – | > 100 | > 100 | > 100 | > 100 | > 100 | > 100 | > 100 | > 100 | > 100 | > 100 | > 100 | > 100
N#Cc1nc(Sc2cnsn2)c(Sc2cnsn2)nc1C#N | 22.1 | > 30.1 | 56.3 | 60.7 | 6.24 | > 81.8 | 47 | – | 50.2 | 51 | 12.5 | 13.1 | 33.6 | 12.1 | 43 | 47.6 | 65.6 | 37.3 | 40.6 | 8.53
CCNc1nc(N)c(C(=O)c2cccs2)s1 | > 100 | 60.7 | > 100 | > 100 | 21.9 | > 100 | 45 | – | > 100 | > 100 | 59.9 | > 100 | > 100 | > 100 | > 100 | 72.4 | > 100 | 50.3 | > 100 | > 100
CCOC(=O)c1c(C)noc1/N=N/N(CCO)CCO | 59.4 | 60.3 | > 100 | > 100 | > 100 | > 100 | – | 59.3 | > 100 | > 100 | > 100 | > 100 | > 100 | > 100 | > 100 | > 100 | 77.2 | > 100 | > 100 | 70.7
Cc1ccc(S(=O)(=O)NC(=O)NC(C(=O)O)C(C)O)cc1 (stereo not drawn) | – | > 100 | > 100 | > 100 | > 100 | > 100 | > 100 | > 100 | > 100 | > 100 | – | > 100 | > 100 | > 100 | > 100 | > 100 | > 100 | > 100 | > 100 | > 100
